The text below walks through data of patent US5053070A, “Pyrimidine derivatives, preparation processes thereof, herbicide containing the same, and herbicidal compositions containing the same along with other active ingredient” (Mitsui Toatsu Chemicals, Incorporated, priority 1988, dated 1991).

Series [1] deals with ALS (acetolactate syntase). The series can be described thus: ALS enzyme assay (Test 1). The note with it: 1,000 ppm (0.5 mg/0.5 ml). In kind it is biochemical, barnyardgrass. Put shortly: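 Partially purified ALS from dark-grown pea and barnyardgrass seedlings incubated 1 h at 30° C with pyruvate, TPP, MgCl2 and FAD. Compounds tested at 1,000 ppm (0.5 mg/0.5 ml). Acetoin formed detected colorimetrically at 525 nm via creatine/α-naphthol, relative to blank and acid-stopped controls.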

In series [2] the test system is barnyardgrass. The series can be described thus: Upland foliar application test (Test 3). Format: in vivo. Conditions: 30 g ai/a, foliar spray at 2-3 leaves, 30th day. Put shortly:
(§1)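 Greenhouse pots, upland soil; seedlings at 2-3 leaves. Foliar ULV spray of water-diluted emulsion, 5 l/are. Injury/damage rated 30 d after spraying.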

Another series relates to common lambsquarters. The series can be described thus: Upland foliar application test (Test 3). Format: in vivo. The note with it: 30 g ai/a, foliar spray at 2-3 leaves, 30th day. A digest of the protocol: as §1
The test system of another series is foxtail meadow. Nature of the series: Upland foliar application test (Test 3). In kind it is in vivo. The note with it: 30 g ai/a, foliar spray at 2-3 leaves, 30th day. Put shortly:
as §1

The next series has as its system green foxtail. Nature of the series: Upland foliar application test (Test 3). In kind it is in vivo. The note with it: 30 g ai/a, foliar spray at 2-3 leaves, 30th day. A digest of the protocol:
as §1

In a further series the test system is johnsongrass. Nature of the series: Upland foliar application test (Test 3). Conditions: 30 g ai/a, foliar spray at 2-3 leaves, 30th day. Format: in vivo. A digest of the protocol:
as §1

The subject of another series is large crabgrass. Nature of the series: Upland foliar application test (Test 3). Format: in vivo. Conditions: 30 g ai/a, foliar spray at 2-3 leaves, 30th day. A digest of the protocol:
as §1

The next series deals with redroot pigweed. The series can be described thus: Upland foliar application test (Test 3). The note with it: 30 g ai/a, foliar spray at 2-3 leaves, 30th day. In kind it is in vivo. Put shortly: as §1
The next series relates to peanut. The series can be described thus: Upland foliar application test (Test 3), crop injury. Format: in vivo. The note with it: 30 g ai/a, foliar spray at 2-3 leaves, 30th day. A digest of the protocol:
as §1

Series [3] has as its system Sagittaria pygmaea. Nature of the series: Treatment of soil under submerged condition, pre-emergence (Test 4). Format: in vivo. The note with it: 30 g ai/a granule, 30 days later. Put shortly: (§2)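 Scores reflect weed emergence and rice injury observed 30 days after a pre-emergence granule treatment. The granule, holding a predetermined amount of test composition, went onto submerged soil pots one day after sowing weeds and transplanting 2–3-leaf rice seedlings.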

The subject of series [4] is barnyardgrass. The description is as above. In kind it is in vivo. The note with it: 30 g ai/a granule, 30 days later. Put shortly:
as §2

The subject of series [5] is bulrush. Described as above. In kind it is in vivo. The note with it: 30 g ai/a granule, 30 days later. Put shortly: as §2
Series [6] has as its system rice. The series can be described thus: Treatment of soil under submerged condition, pre-emergence (Test 4), injury. Format: in vivo. Conditions: 30 g ai/a granule, 30 days later. Put shortly:
as §2

Series [7] relates to Sagittaria pygmaea. Nature of the series: Treatment of soil under submerged condition, post-emergence (Test 5). Format: in vivo. The note with it: 30 g ai/a granule, 30 days later. Put shortly:
(§3)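 Granule applied to submerged greenhouse pots at two-leaf barnyardgrass; transplanted 2–3-leaf rice present; weed damage and rice injury graded 30 days on.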

The test system of series [8] is barnyardgrass. The description is as above. The note with it: 30 g ai/a granule, post-emergence (barnyardgrass two-leaf stage), 30 days later. Format: in vivo. Put shortly: as §3
Series [9] has as its system bulrush. The description is as above. The note with it: 30 g ai/a granule, 30 days later. In kind it is in vivo. A digest of the protocol: as §3
The subject of series [10] is rice. Nature of the series: Treatment of soil under submerged condition, post-emergence (Test 5), injury. In kind it is in vivo. The note with it: 30 g ai/a granule, 30 days later. Put shortly: as §3
In another series the test system is narrowleaf waterplantain. The series can be described thus: Petri dish test (Test 6). Format: in vivo. Conditions: 336 h; seeds on filter paper, 25° C., 14 days; read-out: I80 (ppm). A digest of the protocol: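 Narrowleaf waterplantain seeds placed on filter paper pre-treated with compound in acetone (solvent air-dried) in 9 cm Petri dishes with 10 ml water, grown at 25° C in light. Growth was scored after fourteen days as degree of damage against an untreated group.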

≈ marks a conversion by molar mass, not a printed value.

Take `COc1cc(OC)nc(Oc2ccccc2C=NOCc2ccccc2Cl)n1` [compound 16]: the “Inhibitory activity (%) Barnyardgrass” value in series [1] was determined as 15%. Besides, the “Herbicidal effects Barnyardgrass” value in the series with barnyardgrass [2] is reported as 3 (11-40 (Medium damages)); in the series with barnyardgrass [4] it was 4 (6-10 (Severe damages)); in the series on barnyardgrass [8], 4 (6-10 (Severe damages)). The “Herbicidal effects Common lambsquarters” value in the series with common lambsquarters was 3 (11-40 (Medium damages)). The “Herbicidal effects Foxtail meadow” value in the series with foxtail meadow is listed as 3 (11-40 (Medium damages)). Besides, the “Herbicidal effects Green foxtail” value in the series on green foxtail is 5 (0-5 (Death)). For the same molecule, the “Herbicidal effects Johnsongrass” value in the series with johnsongrass is 5 (0-5 (Death)). Also, the “Herbicidal effects Large crabgrass” value in the series on large crabgrass was 3 (11-40 (Medium damages)). Further, in the series with redroot pigweed, the “Herbicidal effects Redroot pigweed” value is reported as 4 (6-10 (Severe damages)). The “Injury Peanut” value with peanut was 0 (91-100 (No damages)). Further, the entries for the “Herbicidal effects Sagittaria Pygmaea” value in the series with Sagittaria pygmaea [3] and with Sagittaria pygmaea [7] were 4 (6-10 (Severe damages)) and 3 (11-40 (Medium damages)), respectively. Besides, the “Herbicidal effects Bulrush” value is recorded as 3 (11-40 (Medium damages)) with bulrush [5] and 4 (6-10 (Severe damages)) in the series with bulrush [9]. The “Injury Rice” value in the series with rice [6] and in the series with rice [10] was 0 (91-100 (No damages)) throughout. The IC80 with narrowleaf waterplantain amounted to 100 µg/mL (≈ 250 µM).

With `COc1cc(OC)nc(Oc2ccccc2C=NOCc2ccc(Cl)c(Cl)c2)n1` [compound 18], the “Inhibitory activity (%) Barnyardgrass” value in [1] is 14%. In addition, the “Herbicidal effects Barnyardgrass” value is on record as 4 (6-10 (Severe damages)) in the series with barnyardgrass [2], 4 (6-10 (Severe damages)) in the series with barnyardgrass [4] and 3 (11-40 (Medium damages)) in the series with barnyardgrass [8]. In addition, in the series on common lambsquarters, the “Herbicidal effects Common lambsquarters” value was 3 (11-40 (Medium damages)). The “Herbicidal effects Foxtail meadow” value in the series on foxtail meadow is 4 (6-10 (Severe damages)). Further, the “Herbicidal effects Green foxtail” value in the series with green foxtail is 5 (0-5 (Death)). The “Herbicidal effects Johnsongrass” value with johnsongrass is 5 (0-5 (Death)). For the same molecule, the “Herbicidal effects Large crabgrass” value with large crabgrass is recorded as 3 (11-40 (Medium damages)). In addition, the “Herbicidal effects Redroot pigweed” value with redroot pigweed is on record as 4 (6-10 (Severe damages)). Moreover, the “Injury Peanut” value with peanut is 0 (91-100 (No damages)). Besides, the “Herbicidal effects Sagittaria Pygmaea” value in the series with Sagittaria pygmaea [3] and in the series with Sagittaria pygmaea [7] was 4 (6-10 (Severe damages)) in each case. For the same molecule, the “Herbicidal effects Bulrush” value is 2 (41-70 (Small damages)) with bulrush [5] and 4 (6-10 (Severe damages)) in the series with bulrush [9]. The “Injury Rice” value with rice [6] and in the series on rice [10] was 0 (91-100 (No damages)) each time. The IC80 with narrowleaf waterplantain was found to be 67 µg/mL (≈ 154 µM).

As to `COc1cc(OC)nc(Oc2ccccc2C=NOCc2ccc(C)cc2)n1` [compound 19], the “Inhibitory activity (%) Barnyardgrass” value in [1] is on record as 16%. For the same molecule, the results for the “Herbicidal effects Barnyardgrass” value in the series on barnyardgrass [2], in the series with barnyardgrass [4] and in the series with barnyardgrass [8] were 3 (11-40 (Medium damages)), 4 (6-10 (Severe damages)) and 4 (6-10 (Severe damages)), respectively. For the same molecule, in the series with common lambsquarters, the “Herbicidal effects Common lambsquarters” value was 4 (6-10 (Severe damages)). Besides, the “Herbicidal effects Foxtail meadow” value in the series with foxtail meadow is 4 (6-10 (Severe damages)). Also, in the series with green foxtail, the “Herbicidal effects Green foxtail” value is recorded as 5 (0-5 (Death)). In addition, the “Herbicidal effects Johnsongrass” value with johnsongrass was 5 (0-5 (Death)). Moreover, the “Herbicidal effects Large crabgrass” value in the series with large crabgrass was 3 (11-40 (Medium damages)). In the series on redroot pigweed, the “Herbicidal effects Redroot pigweed” value is recorded as 4 (6-10 (Severe damages)). Besides, the “Injury Peanut” value in the series with peanut is recorded as 0 (91-100 (No damages)). Moreover, the “Herbicidal effects Sagittaria Pygmaea” value in the series on Sagittaria pygmaea [3] is given as 4 (6-10 (Severe damages)); in the series with Sagittaria pygmaea [7], 3 (11-40 (Medium damages)). The “Herbicidal effects Bulrush” value in the series on bulrush [5] and in the series with bulrush [9] was 4 (6-10 (Severe damages)) each time. Moreover, the “Injury Rice” value in the series on rice [6] and in the series with rice [10] was 0 (91-100 (No damages)) throughout. The IC80 in the series on narrowleaf waterplantain stood at 100 µg/mL (≈ 264 µM).

As to `COc1cc(OC)nc(Oc2ccccc2C=NOCc2cccc(C)c2)n1` [compound 20], in series [1], the “Inhibitory activity (%) Barnyardgrass” value is 58%. The “Herbicidal effects Barnyardgrass” value with barnyardgrass [2], in the series on barnyardgrass [4] and with barnyardgrass [8] was 5 (0-5 (Death)) throughout. Further, the “Herbicidal effects Common lambsquarters” value in the series on common lambsquarters is reported as 4 (6-10 (Severe damages)). The “Herbicidal effects Foxtail meadow” value in the series with foxtail meadow is on record as 5 (0-5 (Death)). In addition, in the series on green foxtail, the “Herbicidal effects Green foxtail” value is reported as 5 (0-5 (Death)). Moreover, the “Herbicidal effects Johnsongrass” value in the series with johnsongrass is recorded as 5 (0-5 (Death)). Moreover, the “Herbicidal effects Large crabgrass” value with large crabgrass is on record as 5 (0-5 (Death)). Moreover, the “Herbicidal effects Redroot pigweed” value in the series with redroot pigweed is reported as 5 (0-5 (Death)). For the same molecule, in the series on peanut, the “Injury Peanut” value is recorded as 0 (91-100 (No damages)). Besides, the “Herbicidal effects Sagittaria Pygmaea” value in the series with Sagittaria pygmaea [3] and in the series with Sagittaria pygmaea [7] was 4 (6-10 (Severe damages)) throughout. Moreover, the “Herbicidal effects Bulrush” value in the series with bulrush [5] and in the series on bulrush [9] was 4 (6-10 (Severe damages)) each time. The “Injury Rice” value with rice [6] and in the series with rice [10] was 0 (91-100 (No damages)) in each case. Moreover, the IC80 in the series on narrowleaf waterplantain turned out to be 100 µg/mL (≈ 264 µM).

For the molecule `COc1cc(OC)nc(Oc2ccccc2C=NOC(C)c2ccccc2)n1` (stereo not drawn) [compound 21], the “Inhibitory activity (%) Barnyardgrass” value in series [1] stood at 26%. The “Herbicidal effects Barnyardgrass” value with barnyardgrass [2], in the series on barnyardgrass [4] and with barnyardgrass [8] was 3 (11-40 (Medium damages)) throughout. Further, the “Herbicidal effects Common lambsquarters” value with common lambsquarters is reported as 3 (11-40 (Medium damages)). In the series on foxtail meadow, the “Herbicidal effects Foxtail meadow” value was 3 (11-40 (Medium damages)). For the same molecule, the “Herbicidal effects Green foxtail” value in the series with green foxtail is 4 (6-10 (Severe damages)). In addition, the “Herbicidal effects Johnsongrass” value in the series with johnsongrass was 5 (0-5 (Death)). For the same molecule, in the series with large crabgrass, the “Herbicidal effects Large crabgrass” value is on record as 4 (6-10 (Severe damages)). The “Herbicidal effects Redroot pigweed” value in the series on redroot pigweed is listed as 3 (11-40 (Medium damages)). The “Injury Peanut” value in the series with peanut is 0 (91-100 (No damages)). The “Herbicidal effects Sagittaria Pygmaea” value in the series with Sagittaria pygmaea [3] and in the series with Sagittaria pygmaea [7] was 3 (11-40 (Medium damages)) each time. Besides, the “Herbicidal effects Bulrush” value with bulrush [5] and in the series with bulrush [9] was 3 (11-40 (Medium damages)) throughout. In addition, the “Injury Rice” value in the series on rice [6] and in the series on rice [10] was 0 (91-100 (No damages)) throughout. Also, the IC80 with narrowleaf waterplantain is 100 µg/mL (≈ 264 µM).
